Data on 22 compounds can be found in PMC6264139, “Schiff Bases of Indoline-2,3-dione: Potential Novel Inhibitors of Mycobacterium Tuberculosis (Mtb) DNA Gyrase ^†” (Molecules, 2011).

The melting point is the temperature of the solid-liquid transition.

Regarding `Cc1ccc2c(c1)/C(=N/NC(=O)c1cc3ccccc3o1)C(=O)N2` [Compound 18, (Z)-N'-(5-Methyl-2-oxoindolin-3-ylidene)benzofuran-2-carbohydrazide], the melting point fell in the range of 331 to 336 °C.

`Cc1ccc2c(c1)/C(=N/NC(=O)c1ccncc1)C(=O)N2` [Compound 6, (Z)-N'-(5-Methyl-2-oxoindolin-3-ylidene)isonicotinohydrazide] gave a melting point of 319 to 322 °C.

Turning to `O=C1Nc2ccccc2/C1=N/NC(=O)c1ccc([N+](=O)[O-])o1` [Compound 16, (Z)-5-Nitro-N'-(2-Oxoindolin-3-ylidene)furan-2-carbohydrazide], the melting point lay within 309 to 311 °C.

As for `O=C1Nc2ccc(F)cc2/C1=N/NC(=O)c1ccco1` [Compound 15, (Z)-N'-(5-Fluoro-2-oxoindolin-3-ylidene)furan-2-carbhydrazide], the melting point was in the range of 310 to 312 °C.

`O=C1Nc2ccccc2/C1=N/NC(=O)c1cccnc1` [Compound 14, (Z)-N'-(2-Oxoindolin-3-ylidene)nicotinohydrazide]: the melting point was 254 to 256 °C.

`O=C(N/N=C1\C(=O)N(c2ccccc2)c2ccccc21)c1ccncc1` [Compound 9, (Z)-N'-(2-Oxo-1-phenylindolin-3-ylidene)isonicotinohydrazide] displayed a melting point of 201 to 205 °C.

In the case of `O=C(N/N=C1\C(=O)N(Cc2ccccc2)c2ccc(F)cc21)c1ccncc1` [Compound 12, (Z)-N'-(1-Benzyl-5-fluoro-2-oxoindolin-3-ylidene)isonicotinohydrazide], the melting point fell in the range of 188 to 192 °C.

As to `O=C1Nc2ccc([N+](=O)[O-])cc2/C1=N/NC(=O)c1ccncc1` [Compound 8, (Z)-N'-(5-Nitro-2-oxoindolin-3-ylidene)isonicotinohydrazide], the melting point was 350 to 353 °C.

`O=C(N/N=C1\C(=O)N(Cc2ccccc2)c2ccc(Cl)cc21)c1ccncc1` [Compound 11, (Z)-N'-(1-Benzyl-5-chloro-2-oxoindolin-3-ylidene)isonicotinohydrazide] displayed a melting point of 167 to 171 °C.

`O=C1Nc2ccc([N+](=O)[O-])cc2/C1=N/NC(=O)c1cc2ccccc2o1` [Compound 19, (Z)-N'-(5-Nitro-2-oxoindolin-3-ylidene)benzofuran-2-carbohydrazide] returned a melting point of 367 to 369 °C.

With `O=C1Nc2ccc(F)cc2/C1=N/NC(=O)c1cc2cc([N+](=O)[O-])ccc2o1` [Compound 21, (Z)-N'-(5-Fluoro-2-oxoindolin-3-ylidene)-5-nitrobenzofuran-2-carbhydrazide], the melting point fell in the range of 357 to 359 °C.

In turn, `O=C(N/N=C1\C(=O)N(c2ccccc2)c2ccccc21)c1cc2ccccc2o1` [Compound 20, (Z)-N'-(2-Oxo-1-phenylindolin-3-ylidene)benzofuran-2-carbohydrazide] gave a melting point of 235 to 238 °C.

For `Cc1cccc(Nc2ccccc2C(=O)N/N=C2\C(=O)N(Cc3ccccc3)c3ccccc32)c1C` [Compound 23, (Z)-N'-(1-Benzyl-2-oxoindolin-3-ylidene)-2-(2,3-dimethylphenylamino)benzohydrazide], the melting point is 286 to 288 °C.

Compound `Cc1ccc2c(c1)/C(=N/NC(=O)c1ccccc1Nc1c(Cl)ccc(C)c1Cl)C(=O)N2` [Compound 24, (Z)-2-(2,6-Dichloro-3-methylphenylamino)-N'-(5-methyl-2-oxoindolin-3-ylidene)-benzohydrazide] returned a melting point of 283 to 287 °C.

For the compound `O=C1Nc2ccc(OC(F)(F)F)cc2/C1=N/NC(=O)c1ccccc1Nc1cccc(C(F)(F)F)c1` [Compound 25, (Z)-N'-(2-Oxo-5-(trifluoromethoxy)indolin-3-ylidene)-2-(3-(trifluoromethyl)phenylamino)-benzo-hydrazide], the melting point turned out to be 226 °C.

As for `O=C1Nc2ccc(Cl)cc2/C1=N/NC(=O)c1ccncc1` [Compound 4, (Z)-N'-(5-Chloro-2-oxoindolin-3-ylidene)isonicotinohydrazide], the melting point was in the range of 345 to 348 °C.

`O=C1Nc2ccc(Cl)cc2/C1=N/NC(=O)c1cc2ccccc2o1` [Compound 17, (Z)-N'-(5-Chloro-2-oxoindolin-3-ylidene)benzofuran-2-carbohydrazide] returned a melting point of 335 to 338 °C.

For the compound `Cc1ccc2c(c1)/C(=N/NC(=O)c1ccncc1)C(=O)N2Cc1ccccc1` [Compound 13, (Z)-N'-(1-Benzyl-5-methyl-2-oxoindolin-3-ylidene)isonicotinohydrazide], the melting point lay in the range of 159 to 162 °C.

Turning to `O=C1Nc2ccc(F)cc2/C1=N/NC(=O)c1ccncc1` [Compound 5, (Z)-N'-(5-Fluoro-2-oxoindolin-3-ylidene)isonicotinohydrazide], the melting point lay within 346 to 348 °C.

`O=C1/C(=N\NC(=O)C23CC4CC(CC(C4)C2)C3)c2ccccc2N1c1ccccc1` [Compound 22, (Z)-N'-(2-oxo-1-phenylindolin-3-ylidene)adamantane-1-carbohydrazide] gave a melting point of 201 to 203 °C.

In turn, `CCn1cc(C(=O)N/N=C2\C(=O)Nc3ccc(F)cc32)c(=O)c2ccc(C)nc21` [Compound 26, (Z)-1-Ethyl-N'-(5-fluoro-2-oxoindolin-3-ylidene)-7-methyl-4-oxo-1,4-dihydro-1,8-naphthyridine-3-carbohydrazide] displayed a melting point greater than 360 °C.

Regarding `O=C1Nc2ccc(OC(F)(F)F)cc2/C1=N/NC(=O)c1ccncc1` [Compound 7, (Z)-N'-(2-Oxo-5-(trifluoromethoxy)indolin-3-ylidene)isonicotinohydrazide], the melting point lay within 262 to 265 °C.
